# Measured values taken from PMC4624270 (Journal of the American Chemical Society, 2015).
# Target: PikDH2 (PikKR2-DH2 didomain) (Streptomyces venezuelae, UniProt Q9ZGI5)
# Assay: time-dependent inactivation, Kitz-Wilson plot
# Format: biochemical
# Settings: read-out: KI; covalent; mechanism-based irreversible inhibitor; substrate 2a; 10 to 40 μM inhibitor
# Chain of PikDH2 (PikKR2-DH2 didomain) (Q9ZGI5 3579-4365): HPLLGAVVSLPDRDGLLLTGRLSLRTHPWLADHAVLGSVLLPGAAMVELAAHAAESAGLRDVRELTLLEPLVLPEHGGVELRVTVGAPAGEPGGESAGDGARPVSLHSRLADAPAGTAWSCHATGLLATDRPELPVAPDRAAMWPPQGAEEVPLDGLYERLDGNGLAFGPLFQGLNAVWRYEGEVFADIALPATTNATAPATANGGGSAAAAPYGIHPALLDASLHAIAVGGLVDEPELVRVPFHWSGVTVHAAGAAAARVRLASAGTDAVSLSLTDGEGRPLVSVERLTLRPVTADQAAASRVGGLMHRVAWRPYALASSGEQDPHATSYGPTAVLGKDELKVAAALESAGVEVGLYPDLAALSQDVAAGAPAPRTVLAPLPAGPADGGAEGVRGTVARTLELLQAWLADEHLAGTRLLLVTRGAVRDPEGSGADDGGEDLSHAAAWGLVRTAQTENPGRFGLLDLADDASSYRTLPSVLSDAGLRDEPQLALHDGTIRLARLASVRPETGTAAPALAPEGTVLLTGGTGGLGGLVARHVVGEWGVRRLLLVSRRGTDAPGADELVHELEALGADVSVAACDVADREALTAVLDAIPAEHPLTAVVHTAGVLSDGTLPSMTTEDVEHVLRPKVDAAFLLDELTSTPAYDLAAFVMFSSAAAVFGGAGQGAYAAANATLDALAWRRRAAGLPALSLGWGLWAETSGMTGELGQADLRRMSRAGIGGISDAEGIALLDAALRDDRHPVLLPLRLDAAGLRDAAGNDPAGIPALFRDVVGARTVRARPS
smiles,measurement,value
"CCCCCCC#CCC(=O)SCCNC(C)=O [compound 6, 3-Decynoyl-N-acetylcysteamine]",KI (inactivation),156 ± 34 µM
